Experiments:
[1] = Cell cycle analysis in human MCF7 cells assessed as accumulation at G0/G1 phase at 50 uM measured after 24 hrs by propidium iodide staining-based flow cytometry (reference value: 72.1%); assay type: functional
[2] = Cell cycle analysis in human MCF7 cells assessed as accumulation at S phase at 50 uM measured after 24 hrs by propidium iodide staining-based flow cytometry (reference value: 13.2%); assay type: functional
[3] = Cell cycle arrest in human MCF7 cells assessed as M1 quadrant cells at 50 uM pretreated with autophagy inhibitor wortmannin for 1 hr followed by compound addition measured after 48 hrs by propidium iodide staining-based flow cytometry assay (reference value: 98.1%); assay type: functional; design: scale not given: the % may be the effect or the level left
[4] = Cell cycle analysis in human MCF7 cells assessed as accumulation at G0/G1 phase at 50 uM measured after 16 hrs by propidium iodide staining-based flow cytometry (reference value: 72.1%); assay type: functional
[5] = Cell cycle analysis in human MCF7 cells assessed as accumulation at G2/M phase at 50 uM measured after 8 hrs by propidium iodide staining-based flow cytometry (reference value: 8.5%); assay type: functional
[6] = Cell cycle arrest in human MCF7 cells assessed as sub-diploid cells at 50 uM pretreated with autophagy inhibitor wortmannin for 1 hr followed by compound addition measured after 48 hrs by propidium iodide staining-based flow cytometry assay (reference value: 1.9%); assay type: functional; design: scale not given: the % may be the effect or the level left
[7] = Cell cycle arrest in human MCF7 cells assessed as sub-diploid cells at 50 uM pretreated with pan-caspase inhibitor Z-VAD-FMK for 1 hr followed by compound addition measured after 48 hrs by propidium iodide staining-based flow cytometry assay (reference value: 1.9%); assay type: functional; design: scale not given: the % may be the effect or the level left
[8] = Cell cycle analysis in human MCF7 cells assessed as accumulation at SubG1 phase at 50 uM measured after 8 hrs by propidium iodide staining-based flow cytometry (reference value: 5.6%); assay type: functional
[9] = Cell cycle arrest in human MCF7 cells assessed as M1 quadrant cells at 50 uM pretreated with pan-caspase inhibitor Z-VAD-FMK for 1 hr followed by compound addition measured after 48 hrs by propidium iodide staining-based flow cytometry assay (reference value: 98.1%); assay type: functional; design: scale not given: the % may be the effect or the level left
[10] = Cell cycle analysis in human MCF7 cells assessed as accumulation at S phase at 50 uM measured after 4 hrs by propidium iodide staining-based flow cytometry (reference value: 13.2%); assay type: functional
[11] = Cell cycle analysis in human MCF7 cells assessed as accumulation at S phase at 50 uM measured after 16 hrs by propidium iodide staining-based flow cytometry (reference value: 13.2%); assay type: functional
[12] = Cell cycle analysis in human MCF7 cells assessed as accumulation at G0/G1 phase at 50 uM measured after 8 hrs by propidium iodide staining-based flow cytometry (reference value: 72.1%); assay type: functional
[13] = Cell cycle analysis in human MCF7 cells assessed as accumulation at SubG1 phase at 50 uM measured after 24 hrs by propidium iodide staining-based flow cytometry (reference value: 5.6%); assay type: functional
[14] = Cell cycle analysis in human MCF7 cells assessed as accumulation at S phase at 50 uM measured after 8 hrs by propidium iodide staining-based flow cytometry (reference value: 13.2%); assay type: functional
MCF7 = experiment: Selectivity index, ratio of GI50 for human 184B5 cells to GI50 for human MCF7 cells; assay type: functional
[15] = Cytotoxicity against human 184B5 cells assessed as reduction in cell viability measured after 72 hrs by MTT assay; assay type: toxicity, cell-based
[16] = Cytotoxicity against human PC3 cells assessed as reduction in cell viability measured after 72 hrs by MTT assay; assay type: functional; conditions: PC-3, 72 h
[17] = Cell cycle analysis in human MCF7 cells assessed as accumulation at G2/M phase at 50 uM measured after 4 hrs by propidium iodide staining-based flow cytometry (reference value: 8.5%); assay type: functional
[18] = Cell cycle arrest in human MCF7 cells assessed as sub-diploid cells at 50 uM measured after 48 hrs by propidium iodide staining-based flow cytometry (reference value: 1.9%); assay type: functional
[19] = Cell cycle analysis in human MCF7 cells assessed as accumulation at S phase at 50 uM measured after 48 hrs by propidium iodide staining-based flow cytometry (reference value: 13.2%); assay type: functional
[20] = Cell cycle analysis in human MCF7 cells assessed as accumulation at G0/G1 phase at 50 uM measured after 48 hrs by propidium iodide staining-based flow cytometry (reference value: 72.1%); assay type: functional
[21] = Cell cycle analysis in human MCF7 cells assessed as accumulation at G2/M phase at 50 uM measured after 24 hrs by propidium iodide staining-based flow cytometry (reference value: 8.5%); assay type: functional
[22] = Cell cycle analysis in human MCF7 cells assessed as accumulation at G2/M phase at 50 uM measured after 16 hrs by propidium iodide staining-based flow cytometry (reference value: 8.5%); assay type: functional
[23] = Cell cycle arrest in human MCF7 cells assessed as M1 quadrant cells at 50 uM measured after 48 hrs by propidium iodide staining-based flow cytometry (reference value: 98.1%); assay type: functional
[24] = Cell cycle analysis in human MCF7 cells assessed as accumulation at G2/M phase at 50 uM measured after 48 hrs by propidium iodide staining-based flow cytometry (reference value: 8.5%); assay type: functional
[25] = Cell cycle analysis in human MCF7 cells assessed as accumulation at SubG1 phase at 50 uM by propidium iodide staining-based flow cytometry; assay type: functional; conditions: TDE = time-dependent effect
[26] = Cell cycle analysis in human MCF7 cells assessed as accumulation at SubG1 phase at 50 uM measured after 16 hrs by propidium iodide staining-based flow cytometry (reference value: 5.6%); assay type: functional
[27] = Cell cycle analysis in human MCF7 cells assessed as accumulation at G0/G1 phase at 50 uM measured after 4 hrs by propidium iodide staining-based flow cytometry (reference value: 72.1%); assay type: functional
[28] = Cell cycle analysis in human MCF7 cells assessed as accumulation at SubG1 phase at 50 uM measured after 4 hrs by propidium iodide staining-based flow cytometry (reference value: 5.6%); assay type: functional
[29] = Cell cycle analysis in human MCF7 cells assessed as accumulation at SubG1 phase at 50 uM measured after 48 hrs by propidium iodide staining-based flow cytometry (reference value: 5.6%); assay type: functional
[30] = Cytotoxicity against human MCF7 cells assessed as reduction in cell viability measured after 72 hrs by MTT assay; assay type: functional; conditions: MCF7, 72 h
[31] = Cell cycle arrest in human MCF7 cells assessed as M1 quadrant cells at 100 nM measured after 48 hrs by propidium iodide staining-based flow cytometry (reference value: 98.1%); assay type: functional
[32] = Cell cycle arrest in human MCF7 cells assessed as sub-diploid cells at 100 nM measured after 48 hrs by propidium iodide staining-based flow cytometry (reference value: 1.9%); assay type: functional

In the case of `N#C[Se]Cc1ccc(-n2cccc2)cc1`, the Activity [1] is reported as 55.7%, the Activity [2] is reported as 17.2% and the Activity [3] is reported as 69.2%. For the same molecule, the Activity [4] was 53.7%, the Activity [5] was 18.4% and the Activity [6] was 30.8%. For the same molecule, the Activity [7] was 18.2%, the Activity [8] was 2.9% and the Activity [9] was 81.7%. For the same molecule, the Activity [10] was 19.3%, the Activity [11] was 17.6% and the Activity [12] was 61.4%. The Activity [13] was 13.1%, the Activity [14] was 17.8% and the RatioGI50 (MCF7) was >41.8. The GI50 at 72 h ([15]; 184B5 cells) was > 100 µM, the LC50 ([15]; 184b5, 72 h) was > 100 µM and the TGI ([15]; 184b5, 72 h) was > 100 µM. The GI50 [16] was 59.9 µM, the LC50 (concentration lethal to 50% of cells) [16] was > 100 µM and the TGI [16] was > 100 µM. The Activity [17] was 18.7%, the Activity [18] was 32.2% and the Activity [19] was 9.1%. For the same molecule, the Activity [20] was 53.6%, the Activity [21] was 14% and the Activity [22] was 17.2%. For the same molecule, the Activity [23] was 67.8%, the Activity [24] was 10.3% and the Activity [25] was “Tde”. It also gave an Activity [26] of 9.4%, an Activity [27] of 59.6% and an Activity [28] of 2.2%. The Activity [29] was 25.2%, the GI50 [30] was 2400 nM and the LC50 [30] was > 100 µM. The TGI [30] was > 100 µM.
Work on `COC[C@H]1OC(=O)c2coc3c2[C@@]1(C)C1=C(C3=O)[C@@H]2CCC(=O)[C@@]2(C)C[C@H]1OC(C)=O` yielded an Activity [31] of 93.8% and an Activity [32] of 6.2%.
